In US9073895B2 (Boehringer Ingelheim International GmbH, priority 2010, dated 2015) one finds IC50 data, which are given here for 29 compounds.

Assay [1] addresses T1, recombinant human FLAP protein (Homo sapiens, UniProt P20292).
T1 construct: made in house; host or cells: Sf9 insect cells (membrane fraction, 100,000 x g pellet)
T1 sequence (P20292 1-161): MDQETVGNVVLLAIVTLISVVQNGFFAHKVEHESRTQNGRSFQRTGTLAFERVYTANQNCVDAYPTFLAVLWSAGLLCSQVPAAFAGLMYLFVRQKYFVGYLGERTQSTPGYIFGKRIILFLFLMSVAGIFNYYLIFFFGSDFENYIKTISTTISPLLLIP
Briefly: FLAP binding assay (SPA, displacement of [125I]L-691,831). The conditions noted are these: membranes of sf9 cells expressing human FLAP, [125I]L-691,831 probe; read-out: hFLAP binding IC50. An outline of the steps: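 Membranes from sf9 cells expressing human FLAP (5 μg/well) were bound to WGA SPA beads (200 μg/well). Nonspecific binding was defined with 10 μM unlabelled L-691,831.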
(In general: In a radioligand displacement assay an active substance lowers the binding of a labelled ligand.)

The test system of assay [2] is synthesis of LTB4 in human whole blood. Nature of the assay: Human whole blood LTB4 production inhibition assay. The note with it: heparinized human whole blood, calcimycin 20 μM, plasma LTB4; read-out: HuWB IC50. It is filed as cell-based. The procedure, abridged:
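LTB4 levels in plasma were measured by antibody-based HTRF after heparinized human whole blood, pretreated with compound (15 min, 37° C), was challenged with 20 μM calcimycin for 30 min at 37° C.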

On to `N#Cc1ccc(NC(=O)C2(c3ccc(-c4cnc(N)nc4)cc3)CCC2)cc1Cl` [Example 195, 1-[4-(2-aminopyrimidin-5-yl)phenyl]-N-(3-chloro-4-cyanophenyl)cyclobutane-carboxamide], for which the half-inhibitory concentration (IC50) (in general, the concentration needed to halve the response being measured) in assay [1] is 2.7 nM; in assay [2], 174 nM.
The like results for `Nc1ncc(-c2ccc(C3(C(=O)Nc4cccnc4)CCC3)cc2)cn1` [Example 183, 1-[4-(2-aminopyrimidin-5-yl)phenyl]-N-(pyridin-3-yl)cyclobutanecarboxamide] were, in that order, 51.6 nM and 480 nM.
On the same counts, the results for `CN1CCN(c2cc(NC(=O)C3(c4ccc(-c5cnc(N)nc5)cc4)CCC3)ccn2)CC1` [Example 252, 1-[4-(2-aminopyrimidin-5-yl)phenyl]-N-[2-(4-methylpiperazin-1-yl)pyridin-4-yl]cyclobutanecarboxamide] are 7.4 nM and 228 nM.
The like results for `Nc1ncc(-c2ccc(C3(C(=O)Nc4ccc(-c5ccccc5)cn4)CCC3)cc2)cn1` [Example 201, 1-[4-(2-aminopyrimidin-5-yl)phenyl]-N-(5-phenylpyridin-2-yl)cyclobutanecarboxamide] were, in that order, 3.75 nM and 224 nM.
As for `Nc1ncc(-c2ccc(C3(C(=O)Nc4ccc(Oc5ccc(Cl)cc5)cc4)CCOCC3)cc2)cn1` [Example 63, 4-[4-(2-aminopyrimidin-5-yl)phenyl]-N-[4-(4-chlorophenoxy)phenyl]tetrahydro-2H-pyran-4-carboxamide], the IC50 came to 30.5 nM in assay [1] and 812 nM in assay [2].
The like results for `N#Cc1ccc(NC(=O)C2(c3ccc(-c4cnc(N)c(CO)c4)cc3)CCOCC2)nc1` [Example 179, 4-{4-[6-amino-5-(hydroxymethyl)pyridin-3-yl]phenyl}-N-(5-cyanopyridin-2-yl)tetrahydro-2H-pyran-4-carboxamide] were, in that order, 24.7 nM and 388 nM.
On the same counts, the results for `Nc1ncc(-c2ccc(C3(C(=O)Nc4ccc(C(F)(F)F)nc4)CCOCC3)cc2)cn1` [Example 48, 4-[4-(2-aminopyrimidin-5-yl)phenyl]-N-[6-(trifluoromethyl)pyridin-3-yl]tetrahydro-2H-pyran-4-carboxamide] are 84 nM and 1630 nM.
On the same counts, the results for `COc1cncc(-c2ccc(NC(=O)C(C)(c3ccc(-c4cnc(N)nc4)cc3)C(C)C)nc2)c1` (stereo not shown) [Example 162, 2-[4-(2-aminopyrimidin-5-yl)phenyl]-N-(5'-methoxy-3,3'-bipyridin-6-yl)-2,3-dimethylbutanamide] are 4.1 nM and 896 nM.
Turning to `Nc1ncc(-c2ccc(C3(C(=O)Nc4ccc(CN5CCS(=O)(=O)CC5)cc4)CCOCC3)cc2)cn1` [Example 148, 4-[4-(2-aminopyrimidin-5-yl)phenyl]-N-{4-[(1,1-dioxidothiomorpholin-4-yl)methyl]phenyl}tetrahydro-2H-pyran-4-carboxamide], the figures for the half-maximal inhibitory concentration (IC50) in assay [1] and in assay [2] were 360 nM and 3980 nM, respectively.
`Cc1noc(-c2ccc(NC(=O)C3(c4ccc(-c5cnc(N)nc5)cc4)CCOCC3)nc2)n1` [Example 178, 4-[4-(2-aminopyrimidin-5-yl)phenyl]-N-[5-(3-methyl-1,2,4-oxadiazol-5-yl)pyridin-2-yl]tetrahydro-2H-pyran-4-carboxamide]: the half-inhibitory concentration (IC50) came to 35.5 nM in assay [1] and 557 nM in assay [2].
Turning to `Nc1ncc(-c2ccc(C3(C(=O)Nc4ccc5ncsc5c4)CCC3)cc2)cn1` [Example 204, 1-[4-(2-aminopyrimidin-5-yl)phenyl]-N-(1,3-benzothiazol-6-yl)cyclobutanecarboxamide], the IC50 amounted to 2.8 nM in assay [1] and 415 nM in assay [2].
For `N#Cc1ccnc(NC(=O)C2(c3ccc(-c4cnc(N)nc4)cc3)CCOCC2)c1` [Example 79, 4-[4-(2-aminopyrimidin-5-yl)phenyl]-N-(4-cyanopyridin-2-yl)tetrahydro-2H-pyran-4-carboxamide], the results for the IC50 in assay [1] and in assay [2] were 53.5 nM and above 3000 nM, respectively.
The like results for `COc1ncc(-c2ccc(C(C)(C(=O)Nc3ccc(-c4csc(C)n4)cc3)C(C)C)cc2)cn1` (stereo not shown) [Example 116, 2-[4-(2-methoxypyrimidin-5-yl)phenyl]-2,3-dimethyl-N-[4-(2-methyl-1,3-thiazol-4-yl)phenyl]butanamide] were, in that order, 430 nM and 10800 nM.
In the case of `Nc1ncc(-c2ccc(C3(C(=O)Nc4ccc(-c5ccncc5)cn4)CCC3)cc2)cn1` [Example 238], the IC50 in assay [1] was 2.35 nM; in assay [2] it was 74.5 nM.
On the same counts, the results for `CCC(C)(C(=O)Nc1ccc(-c2csc(C)n2)cn1)c1ccc(-c2cnc(N)nc2)cc1` (stereo not shown) [Example 228, 2-[4-(2-aminopyrimidin-5-yl)phenyl]-2-methyl-N-[5-(2-methyl-1,3-thiazol-4-yl)pyridin-2-yl]butanamide] are 12 nM and 1100 nM.
For the compound `Nc1ncc(-c2ccc(C3(C(=O)Nc4cccc(-c5ccncc5)c4)CCOCC3)cc2)cn1` [Example 33, 4-[4-(2-aminopyrimidin-5-yl)phenyl]-N-[3-(pyridin-4-yl)phenyl]tetrahydro-2H-pyran-4-carboxamide], the concentration for half-maximal inhibition (IC50) in assay [1] was 42.5 nM; in assay [2] it was above 3000 nM.
In the case of `Nc1ncc(-c2ccc(C3(C(=O)Nc4ccc(S(=O)(=O)N5CCOCC5)cc4)CCC3)cc2)cn1` [Example 88, 1-[4-(2-aminopyrimidin-5-yl)phenyl]-N-[4-(mopholin-4-ylsulfonyl)phenyl]cyclobutane-carboxamide], the IC50 in assay [1] came to 5.65 nM; in assay [2], 278 nM.
The like results for `O=C(Nc1ccc(Oc2ccccc2)cn1)C1(c2ccc(-c3cnc4[nH]ccc4c3)cc2)CCOCC1` [Example 174, N-(5-phenoxypyridin-2-yl)-4-[4-(1H-pyrrolo[2,3-b]pyridin-5-yl)phenyl]tetrahydro-2H-pyran-4-carboxamide] were, in that order, 18.1 nM and 686 nM.
The like results for `Nc1ncc(-c2ccc(C3(C(=O)Nc4ccc(OC(F)(F)F)cc4)CCOCC3)cc2)cn1` [Example 39, 4-[4-(2-aminopyrimidin-5-yl)phenyl]-N-[4-(trifluoromethoxy)phenyl] tetrahydro-2H-pyran-4-carboxamide] were, in that order, 55 nM and 1920 nM.
The like results for `Cc1nc(-c2ccc(NC(=O)C3(c4ccc(-c5cnc(N)c(C)n5)cc4)CCOCC3)nc2)cs1` [Example 182, 4-[4-(5-amino-6-methylpyrazin-2-yl)phenyl]-N-[5-(2-methyl-1,3-thiazol-4-yl)pyridin-2-yl]tetrahydro-2H-pyran-4-carboxamide] were, in that order, 32.5 nM and 1060 nM.
With `Cc1nc(-c2ccc(NC(=O)C3(c4ccc(-c5cnc(N)nc5)cc4)CCCC3)nc2)cs1` [Example 223], the half-inhibitory concentration (IC50) turned out to be 7.15 nM in assay [1] and 1670 nM in assay [2].
On the same counts, the results for `CC(C)(C)c1cccc(NC(=O)C2(c3ccc(-c4cnc(N)nc4)cc3)CCOCC2)c1` [Example 74, 4-[4-(2-aminopyrimidin-5-yl)phenyl]-N-(3-tert-butylphenyl)tetrahydro-2H-pyran-4-carboxamide] are 97 nM and above 3000 nM.
The like results for `Cc1nc(-c2ccc(NC(=O)C3(c4ccc(-c5cnc6c(c5)CCN6)cc4)CCOCC3)nc2)cs1` [Example 153, 4-[4-(2,3-dihydro-1H-pyrrolo[2,3-b]pyridin-5-yl)phenyl]-N-[5-(2-methyl-1,3-thiazol-4-yl)pyridin-2-yl]tetrahydro-2H-pyran-4-carboxamide] were, in that order, 7.8 nM and 509 nM.
The like results for `COc1cc(NC(=O)C2(c3ccc(-c4cnc5[nH]ccc5c4)cc3)CCC2)ccn1` [Example 190, N-(2-methoxypyridin-4-yl)-1-[4-(1H-pyrrolo[2,3-b]pyridin-5-yl)phenyl]cyclobutanecarboxamide] were, in that order, 2.25 nM and 149 nM.
Consider `Nc1ncc(-c2ccc(C3(C(=O)Nc4ccc5ncsc5c4)CCC3)cn2)cn1` [Example 92, 1-[6-(2-aminopyrimidin-5-yl)pyridin-3-yl]-N-(1,3-benzothiazol-6-yl)cyclobutanecarboxamide], for which the IC50 in assay [1] was 15.5 nM; in assay [2], 718 nM.
The like results for `Cn1cc(NC(=O)C2(c3ccc(-c4cnc(N)nc4)cc3)CCC2)cn1` [Example 110, 1-[4-(2-aminopyrimidin-5-yl)phenyl]-N-(1-methyl-1H-pyrazol-4-yl)cyclobutanecarboxamide] were, in that order, 120 nM and 1100 nM.
The like results for `CC(C)n1ncc2cc(NC(=O)C3(c4ccc(-c5cnc(N)nc5)cc4)CCOCC3)cnc21` [Example 68, 4-[4-(2-aminopyrimidin-5-yl)phenyl]-N-[1-(propan-2-yl)-1H-pyrazolo[3,4-b]pyridin-5-yl)tetrahydro-2H-pyran-4-carboxamide] were, in that order, 68.5 nM and 1210 nM.
As for `O=C(Nc1ccc(Oc2ccccc2)cn1)C1(c2ccc(-c3cnc4[nH]ccc4c3)cc2)CCC1` [Example 198, N-(5-phenoxypyridin-2-yl)-1-[4-(1H-pyrrolo[2,3-b]pyridin-5-yl)phenyl]cyclobutane-carboxamide], the half-inhibitory concentration (IC50) was determined as 3.75 nM in assay [1] and 180 nM in assay [2].
With `Nc1ncc(-c2ccc(C3(C(=O)Nc4ccc(-c5ccccc5)nc4)CCOCC3)cc2)cn1` [Example 67, 4-[4-(2-aminopyrimidin-5-yl)phenyl]-N-(6-phenylpyridin-3-yl)tetrahydro-2H-pyran-4-carboxamide], the IC50 in assay [1] was determined as 14.5 nM; in assay [2], 1210 nM.
